Test results published in paper PMC10979476, “Molecular Deformation Is a Key Factor in Screening Aggregation Inhibitor for Intrinsically Disordered Protein Tau” (ACS Central Science, 2024).

Key:
SK-N-SH cells = assay: CCK-8 cell survival assay; assay type: cell-based, human; settings: 24 h; for cytotoxicity (in words): different concentrations, SK-N-SH cells
Description: After the above-mentioned systematic study of SAR at the molecular level, we wondered whether these inhibitory effects can be reproduced in the actual biological system, laying the foundation for the discovery of drug lead compounds. Therefore, the cytotoxicity and inhibitory effects of these synthetic compounds were evaluated by human neuroblastoma SK-N-SH cells. […] The cell viability of SK-N-SH was assessed using a cell counting kit-8 (CCK-8) assay.[48] It could be seen that the cell survival rate was still higher than 70% when the concentration of IPP1 reached 30 μM. […]
11. In Vitro Cellular Uptake and Cell Cytotoxicity.
Cell viability was assessed using Cell Counting Kit-8 (CCK-8) assay following the manufacturer’s instructions. SK-N-SH cells were seeded at a density of 2.0 × 10^4 cells per well in a 96-well plate and incubated for 24 h to adhere in a humidified chamber. Then, the cells were treated with various concentrations of compounds IPP1~IPP4 for 24 h. After that, the culture supernatants were removed, and 90 μL of medium and 10 μL of CCK-8 solution were then added. After further incubation for 3 h at 37 °C, the absorbance was measured at 450 nm using Microplate Reader 581 (SpectraMax iD3). Six replicates were used in each group.
12. In Vitro Evaluation of Inhibitory Effects of Inhibitor on Tau Aggregation In SK-N-SH Cell.
The effect of inhibitors on the formation of aggregate tau in SK-N-SH was tested by using the previously reported method15. First, SK-N-SH was grown on glass coverslips in 12-well plate at a […]

tau hexapeptide VQIVYK = biological target: T1, tau hexapeptide VQIVYK (Homo sapiens, UniProt P10636); assay: Heparin-induced aggregation of tau hexapeptide VQIVYK, fluorescence assay; assay type: biochemical; settings: VQIVYK 15 μM, Figure S15
T1 construct: 306VQIVYK311(15 μM), ThS, VQIVYK+heparin
From the text: The carbonyl group in five-membered ring A in IPP1 forms a hydrogen bond with the amino group on glutamine (GLN307), valine (VAL309), and tyrosine (TYR310). The nitrogen atom in pyridine ring C in IPP1 also forms a hydrogen bond with the amino group of isoleucine (ILE308). Pyridine ring C on IPP1 forms π–π stacking with the benzene ring on TYR310. The five-membered ring A in IPP1 also forms hydrophobic contacts with glycine (GLY304), VAL306, and VAL309, which further increases the interaction between the molecule IPP1 and tau. […] Visually, IPP1 is like a molecular clip that firmly holds the key region, preventing the peptide from freely curling/folding and increasing the possibility to inhibit aggregation. […] As a result, the effective interactions between these compounds and tau peptide chains are much less than those of IPP1. […] To verify the docking results, we directly applied IPP1 to the aggregation of tau hexapeptide VQIVYK (Figure S15). […] The positive experimental results of IPP1 inhibition on tau hexapeptide further confirmed the reliability of our theoretical speculation on the target segment. […]
17. The fluorescence spectra of peptide fragments systems in the presence or absence of IPP1
Figure S15. The fluorescence spectra of peptide fragments systems containing […]

Structure (SMILES) | cell survival rate (SK-N-SH cells; 30 μM, tau-infected SK-N-SH cells) | cytotoxicity (in words) (SK-N-SH cells) | aggregation of tau hexapeptide induced by heparin (tau hexapeptide VQIVYK)
O=C1Nc2cccc(-c3ccc(N4CCCC4)nc3)c2C1=O [IPP1, 4-(6-(pyrrolidin-1-yl)pyridin-3-yl)indoline-2,3-dione] | higher than 70% | relatively low cytotoxicity | significantly reduced the aggregation of tau hexapeptide
O=C1Nc2cc(-c3ccc(N4CCCC4)nc3)ccc2C1=O [IPP3, 6-(6-(pyrrolidin-1-yl)pyridin-3-yl)indoline-2,3-dione] |  | toxicity is not negligible | 
O=C1Nc2ccc(-c3ccc(N4CCCC4)nc3)cc2C1=O [IPP2, 5-(6-(pyrrolidin-1-yl)pyridin-3-yl)indoline-2,3-dione] |  | lowest cytotoxicity | 
